In patent US20030211036A1, “Method and apparatus for monitoring and quantitatively evaluating tumor perfusion” (priority 2002, published 2003):

What was measured:
[1] = HDO concentration in mice plasma by 2H-MRS during and post 2H-saline i.v. infusion (arterial input function); format: in vivo
Description: (§1) Enrichment of the mice's blood with HDO (99.8%) was achieved by applying a slow i.v. infusion of I ml ^2H-saline with a rate of 100 μl/min.
Blood samples ([…]) were drawn from anesthetized mice by retro orbital sinus puncture at 7 time points, 3 mice for each time point, during and post ^2H saline infusion. Samples were collected into separate tubes containing heparin (50 units/ml of blood, Elkins-Sinn Inc., Cherry Hill, N.J.) and were centrifuged at room temperature. The plasma supernatant samples were separated and transferred into 5 mm NMR tubes. ^2H-MR spectra of the plasma samples were recorded at 61.4 MHz on DMX-400 spectrometer (Bruker Analytik, Germany), with a broad-band probe by applying 90° pulses with 4 s repetition time (fully relaxed conditions). Choline-(CD3)3 was added to each plasma sample as an internal reference for concentration.
The 2-compartment kinetic model related the concentration of the tracer in the tissue to tissue's perfusion, as shown by Eq. [3]. Thus, knowledge of the changing arterial tracer concentration over time, termed arterial input function, was required for the numerical solution of the model. In order to obtain qualitative ^2H-images of the tumors and to allow monitoring of HDO uptake with high spatial resolution, a slow i.v. infusion of ^2H-saline, 1 ml in 10 min. was applied. This protocol enriched the content of HDO in the plasma, which is 0.0148% at natural abundance, by 6.8% of HDO that is below toxic levels (13, 14). HDO concentration in the plasma, determined by ^2H-MRS, was monitored during and post-^2H saline infusion (FIG. 1A). During the infusion, HDO accumulated linearly with a correlation coefficient, R^2, of 0.996. The slow decay of HDO in the plasma, post-infusion, approximated linearity with R^2=0.730. Thus, a linear regression analysis of the blood input function Cp(t), was applied in parts, producing two linear functions: (i) during ^2H-saline infusion at t=t0−tinfus, Cp(t)=f(t)=at+b and (ii) post ^2H-saline infusion at t=tinfus−tend, Cp(t)=g(t)=ct+d. […] The plasma concentrations of HDO before and at the end of ^2H-saline infusion were b=0.016 mmol·ml^−1 and d=7.69 mmol·ml^−1, respectively.

[2] = test system: orthotopic MCF7 human breast cancer tumors; test: Dynamic 3D 2H-MRI of HDO perfusion with two-compartment model-based analysis per voxel; format: in vivo, CD1-NU mice
Text: A two-compartment model was custom developed for this activity to describe the kinetics of HDO in MCF7 tumors. The model, designed by Yeung et al. (41) to calculate blood brain transfer constant, is a special case of Patlak's blood-brain exchange model (31, 32). In the present work, the two compartments were assigned to the intravascular space with its respective volume fraction vp and the extravascular space, with its effective volume fraction of water ve* which is approximately 70% of the actual extravascular volume ve (ve*=0.7 ve) their respective volume fraction vp and ve* where,
The experimental kinetic data were fitted to Eq. [7] and Eq. [8] with two free parameters: K and vp, using the following substitutions: ve*=1−vp and kb=K/(1−vp). Deuterium signal intensity per pixel in arbitrary units was converted to Cv(t) in mmol/ml using a calibration solution of known deuterium concentration in saline solution ( 9.9 mmol/ml).
The method and apparatus of the present invention were tested experimentally according to the following protocol. Female CD1-NU athymic mice, 6 weeks old, were orthotopically inoculated in the mammary fat pad with MCF7 human breast cancer cells as previously described (33). Tumors were allowed to develop for 4-8 weeks, to sizes ranging between 0.2-2 cm^3 with average size 0.8±0.2 cm^3. For the MRI measurements, mice were anesthetized by exposure to 1% isoflurane (Medeva Pharmaceuticals, Inc., Rochester, N.Y.), in an O2/N2O (3:7) mixture, applied through a nose cone. Approval was obtained for all animal procedures according to the guidelines of the Committee on Animals of the Weizmann Institute of Science.
as §1
In-vivo imaging was accomplished by taking MR images and recording with a 4.7 T Biospec spectrometer (Bruker Analytik, Germany). ^2H and ^1H images were recorded at frequencies of 30.7 MHz and 200 MHz, respectively, and detected by a home-built double-tuned ^2H/^1H surface coil system, 1.5/2.5 cm in diameter. Dynamic ^2H MR images were acquired utilizing a 3-dimensional (3D) gradient echo sequence with the following parameters: echo time (TE)=3 msec, […] (TR)=60 msec, flip angle=45° achieved by an adiabatic pulse (sin/cos), 2 averages, matrix—128×64×16, 2.6 mm slice thickness, an in-plane resolution of 1×2 mm2 and acquisition time of 2.05 min. The sequential acquisition of ^2H-images began with a pre-infusion image and continued throughout ^2H-saline iv. infusion, into the tail vein of the mouse (1 ml/10 min.), and for 30 minutes thereafter. The pre-infusion images were recorded with a tube containing 9.9 mmol/ml HDO in saline solution, attached to the tumor. This served to calibrate the signal intensity to deuterium concentration in units of mmol/ml.
Image analysis was applied on the time evolution of ^2H intensity in a series of coronal images that were reconstructed from dynamic 3D images of the whole tumor acquired before, during and post ^2H-saline infusion. Analysis was performed utilizing a nonlinear least-square fitting algorithm, developed for the purpose of the invention, at a voxel resolution. The computed analysis initially converted ^2H intensity to concentration by referring to the intensity at the pre-infusion image (t=0) in the attached calibration tube that contained a solution of HDO at a concentration of 9.9 mmol/ml. […]

[3] = General well-being of the animals under the slow i.v. 2H-saline infusion protocol; format: in vivo, mice; settings: i.v. infusion of 1 ml 2H-saline at 100 μl/min
Description: as §1

[4] = cited from earlier work

plasma concentration of HDO before 2H-saline infusion (b) ([1]; mice plasma, before infusion): 16000 µM | plasma concentration of HDO at the end of 2H-saline infusion (d) ([1]; mice plasma, end of i.v. infusion, 1 ml in 10 min): 7.69e+06 µM | rate of HDO clearance from plasma post infusion (c) ([1]; mice plasma, post 2H-saline infusion, linear regression g(t)=ct+d): -0.07 mmol/mL/min | rate of HDO accumulation in plasma during infusion (a) ([1]; mice plasma, slow i.v. infusion of 2H-saline, 1 ml in 10 min, linear regression f(t)=at+b): 0.67 mmol/mL/min | enrichment of the content of HDO in the plasma ([1]; slow i.v. infusion of 2H-saline, 1 ml in 10 min, natural abundance 0.0148%): 6.8% | concentration of HDO in the plasma upon infusion with respect to bolus injection ([1]; slow i.v. infusion versus bolus injection of 200 μl): ~6 times higher | K, fit to the HDO perfusion kinetic model ([2]; FIG. 3 single voxel (a), R^2=0.94): 0.0016 min⁻¹ | K, fit to the HDO perfusion kinetic model ([2]; FIG. 3 single voxel (b), R^2=0.94): 0.0005 min⁻¹ | K, fit to the HDO perfusion kinetic model ([2]; FIG. 3 single voxel (c), R^2=0.96): 0.0031 min⁻¹ | range of the perfusion rate per voxel ([2]; all voxels of the parametric maps, seven MCF7 tumors): 4e-06 to 0.0039 min⁻¹ | Perfusion rate, K, Mean, Average ([2]; average of the total population of voxels in the ROIs of all tumors (n = 1278 pixels)): 1.02 ± 0.02 ·10^−3 min^−1
Compound: [2H]O[2H] [HDO, deuterated water]
adverse effects on the general well-being of the animals [3]: no adverse effects | HDO enrichment of body fluids considered nontoxic [4]: up to 10%
